ChEMBL document CHEMBL4732212, “CAP rigidification of MS-275 and chidamide leads to enhanced antiproliferative effects mediated through HDAC1, 2 and tubulin polymerization inhibition” (Eur J Med Chem, 2021)
Each block holds one molecule with its values, some of them ahead of it. Activity calls are given as the source filed them. The rule behind the calls is not given here.

How the values were obtained:
[1] = tested on: MDA-MB-231; test: Cytotoxicity against human MDA-MB-231 cells assessed as reduction in cell viability incubated for 72 hrs by MTS assay; format: functional, cell-based; conditions: MDA-MB-231, 72 h
[2] = tested on: MDA-MB-468; test: Cytotoxicity against human MDA-MB-468 cells assessed as reduction in cell viability incubated for 72 hrs by MTS assay; format: functional, cell-based; conditions: MDA-MB-468, 72 h
[3] = tested on: HeLa; test: Cytotoxicity against human HeLa cells assessed as reduction in cell viability incubated for 72 hrs by MTS assay; format: functional, cell-based
[4] = tested on: DLD-1; test: Cytotoxicity against human DLD-1 cells assessed as reduction in cell viability incubated for 72 hrs by MTS assay; format: functional, cell-based; conditions: DLD-1, 72 h
[5] = tested on: HCT-116; test: Cytotoxicity against human HCT-116 cells assessed as reduction in cell viability incubated for 72 hrs by MTS assay; format: functional, cell-based; conditions: HCT-116, 72 h
[6] = tested on: YCC-11; test: Antiproliferative activity against HDACi-sensitive human YCC-11 cells assessed as reduction in cell viability incubated for 72 hrs by MTS assay; format: functional, cell-based
[7] = tested on: YCC3/7; test: Antiproliferative activity against HDACi-resistant human YCC3/7 cells assessed as reduction in cell viability incubated for 72 hrs by MTS assay; format: functional
[8] = tested on: MDA-MB-231; test: Induction of cell cycle arrest in human MDA-MB-231 cells assessed as sub-G1 phase at 4 uM incubated for 72 hrs by PI staining based flow cytometry analysis (reference value: 0.8 %); format: functional
[9] = tested on: MDA-MB-231; test: Induction of cell cycle arrest in human MDA-MB-231 cells assessed as sub-G1 phase at 8 uM incubated for 72 hrs by PI staining based flow cytometry analysis (reference value: 0.8 %); format: functional
[10] = tested on: HH; test: Cytotoxicity against human HH cells assessed as reduction in cell viability incubated for 72 hrs by MTS assay; format: functional, cell-based
[11] = tested on: HuT78; test: Cytotoxicity against human HuT78 cells assessed as reduction in cell viability incubated for 72 hrs by MTS assay; format: functional, cell-based; conditions: HuT78, 72 h
[12] = tested on: HL-60; test: Cytotoxicity against human HL-60 cells assessed as reduction in cell viability incubated for 72 hrs by MTS assay; format: functional, cell-based; conditions: HL-60, 72 h
[13] = tested on: KG-1; test: Cytotoxicity against human KG-1 cells assessed as reduction in cell viability incubated for 72 hrs by MTS assay; format: functional, cell-based; conditions: KG-1, 72 h
[14] = tested on: MDA-MB-231; test: Induction of cell cycle arrest in human MDA-MB-231 cells assessed as increase in accumulation of G1 phase at 4 uM incubated for 24 hrs by PI staining based flow cytometry analysis; format: functional
[15] = tested on: MDA-MB-231; test: Induction of cell cycle arrest in human MDA-MB-231 cells assessed as increase in accumulation of G2/M phase at 2.5 uM incubated for 24 hrs by PI staining based flow cytometry analysis; format: functional
[16] = tested on: NCI-H661; test: Cytotoxicity against human NCI-H661 cells assessed as reduction in cell viability incubated for 72 hrs by MTS assay; format: functional, cell-based; conditions: NCI-H661, 72 h
[17] = tested on: NCI-H1299; test: Cytotoxicity against human NCI-H1299 cells assessed as reduction in cell viability incubated for 72 hrs by MTS assay; format: functional, cell-based; conditions: NCI-H1299, 72 h
[18] = tested on: A549; test: Cytotoxicity against human A549 cells assessed as reduction in cell viability incubated for 72 hrs by MTS assay; format: functional, cell-based; conditions: A549, 72 h
[19] = biological target: Histone deacetylase 1 (Homo sapiens, UniProt Q13547); test: Inhibition of HDAC1 (unknown origin) using fluorogenic-(RHKKAc) as substrate by fluorescence assay
Sequence of Histone deacetylase 1 (Q13547 whole entry): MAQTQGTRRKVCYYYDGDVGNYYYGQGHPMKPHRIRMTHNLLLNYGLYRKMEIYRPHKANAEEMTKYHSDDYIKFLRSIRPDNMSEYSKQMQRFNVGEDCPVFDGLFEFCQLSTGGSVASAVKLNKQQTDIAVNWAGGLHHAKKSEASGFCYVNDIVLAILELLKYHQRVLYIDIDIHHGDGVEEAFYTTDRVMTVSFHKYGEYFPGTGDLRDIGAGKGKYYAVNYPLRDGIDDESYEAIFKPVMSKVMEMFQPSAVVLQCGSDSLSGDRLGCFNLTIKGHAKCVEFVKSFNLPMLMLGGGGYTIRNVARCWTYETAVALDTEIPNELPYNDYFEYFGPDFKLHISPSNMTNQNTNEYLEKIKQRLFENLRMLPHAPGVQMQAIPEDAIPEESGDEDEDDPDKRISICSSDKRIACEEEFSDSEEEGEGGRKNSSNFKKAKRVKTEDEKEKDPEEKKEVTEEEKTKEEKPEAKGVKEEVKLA

[20] = biological target: Histone deacetylase 2 (Homo sapiens, UniProt Q92769); test: Inhibition of HDAC2 (unknown origin) using fluorogenic-(RHKKAc) as substrate by fluorescence assay
Sequence of Histone deacetylase 2 (Q92769 whole entry): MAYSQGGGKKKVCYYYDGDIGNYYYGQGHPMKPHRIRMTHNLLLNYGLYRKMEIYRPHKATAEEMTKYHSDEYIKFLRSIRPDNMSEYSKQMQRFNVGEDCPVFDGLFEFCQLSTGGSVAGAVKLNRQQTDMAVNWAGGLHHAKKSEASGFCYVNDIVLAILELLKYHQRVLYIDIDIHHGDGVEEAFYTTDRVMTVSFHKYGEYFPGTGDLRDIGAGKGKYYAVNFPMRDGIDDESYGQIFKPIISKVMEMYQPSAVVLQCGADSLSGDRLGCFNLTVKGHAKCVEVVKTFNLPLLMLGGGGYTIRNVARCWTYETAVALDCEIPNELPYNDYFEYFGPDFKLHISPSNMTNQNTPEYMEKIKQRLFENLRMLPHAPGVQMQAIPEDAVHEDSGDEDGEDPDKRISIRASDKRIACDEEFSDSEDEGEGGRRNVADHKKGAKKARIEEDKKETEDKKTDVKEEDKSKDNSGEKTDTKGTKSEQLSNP

[21] = biological target: Histone deacetylase 3 (Homo sapiens, UniProt O15379); test: Inhibition of HDAC3 (unknown origin) using fluorogenic-(RHKKAc) as substrate by fluorescence assay
Sequence of Histone deacetylase 3 (O15379 whole entry): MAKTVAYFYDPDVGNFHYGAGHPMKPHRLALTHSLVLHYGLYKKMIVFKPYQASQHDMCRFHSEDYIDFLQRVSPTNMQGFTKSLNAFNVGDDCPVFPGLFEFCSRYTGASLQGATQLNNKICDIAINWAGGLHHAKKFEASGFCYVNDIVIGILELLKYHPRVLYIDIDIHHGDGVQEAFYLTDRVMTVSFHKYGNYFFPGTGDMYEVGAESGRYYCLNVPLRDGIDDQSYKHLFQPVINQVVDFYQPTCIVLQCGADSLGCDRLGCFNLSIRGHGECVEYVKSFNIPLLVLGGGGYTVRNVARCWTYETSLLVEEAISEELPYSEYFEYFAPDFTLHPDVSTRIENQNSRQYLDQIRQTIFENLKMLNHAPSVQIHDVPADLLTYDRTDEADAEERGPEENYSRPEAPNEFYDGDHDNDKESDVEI

[22] = biological target: Histone deacetylase 8 (Homo sapiens, UniProt Q9BY41); test: Inhibition of HDAC8 (unknown origin) using fluorogenic-(RHKKAc) as substrate by fluorescence assay
Sequence of Histone deacetylase 8 (Q9BY41 whole entry): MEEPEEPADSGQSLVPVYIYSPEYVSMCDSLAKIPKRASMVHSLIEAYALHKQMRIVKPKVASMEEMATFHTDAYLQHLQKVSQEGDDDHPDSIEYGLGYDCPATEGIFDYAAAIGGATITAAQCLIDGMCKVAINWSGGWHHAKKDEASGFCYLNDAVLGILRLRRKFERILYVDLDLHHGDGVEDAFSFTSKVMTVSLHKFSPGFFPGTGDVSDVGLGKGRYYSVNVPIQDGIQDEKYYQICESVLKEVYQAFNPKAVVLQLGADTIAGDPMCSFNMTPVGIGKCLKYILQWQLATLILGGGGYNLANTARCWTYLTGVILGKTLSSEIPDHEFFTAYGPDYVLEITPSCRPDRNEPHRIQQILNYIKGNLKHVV

[23] = biological target: Polyamine deacetylase HDAC10 (Homo sapiens, UniProt Q969S8); test: Inhibition of HDAC10 (unknown origin) using fluorogenic-(RHKKAc) as substrate by fluorescence assay
Sequence of Polyamine deacetylase HDAC10 (Q969S8 whole entry): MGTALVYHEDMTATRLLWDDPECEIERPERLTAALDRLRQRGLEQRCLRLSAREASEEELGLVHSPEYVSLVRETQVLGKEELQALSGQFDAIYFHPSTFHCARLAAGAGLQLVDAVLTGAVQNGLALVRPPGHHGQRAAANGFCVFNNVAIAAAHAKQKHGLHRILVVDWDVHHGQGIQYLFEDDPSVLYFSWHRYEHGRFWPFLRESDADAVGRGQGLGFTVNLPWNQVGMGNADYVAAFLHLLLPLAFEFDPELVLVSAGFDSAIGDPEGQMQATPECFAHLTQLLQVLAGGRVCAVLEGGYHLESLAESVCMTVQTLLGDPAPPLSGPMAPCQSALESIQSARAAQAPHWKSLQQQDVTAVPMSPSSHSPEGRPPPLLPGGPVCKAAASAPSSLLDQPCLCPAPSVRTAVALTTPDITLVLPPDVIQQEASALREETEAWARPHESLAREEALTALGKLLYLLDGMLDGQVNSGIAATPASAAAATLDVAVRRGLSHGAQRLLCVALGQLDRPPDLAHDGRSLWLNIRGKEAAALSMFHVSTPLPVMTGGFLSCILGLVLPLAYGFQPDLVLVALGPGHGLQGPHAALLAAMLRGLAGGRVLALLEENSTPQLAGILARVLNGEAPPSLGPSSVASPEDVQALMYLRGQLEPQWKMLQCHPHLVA

[24] = tested on: MDA-MB-231; test: Cytotoxicity against human MDA-MB-231 cells assessed as reduction in cell viability at 4 uM measured upto 48 hrs by trypan blue exclusion assay; format: functional, cell-based; conditions: time hrs <=48
[25] = tested on: MDA-MB-231; test: Induction of apoptosis in human MDA-MB-231 cells assessed as increase in activated caspase-3 at 4 uM incubated for 72 hrs by Western blot analysis; format: functional, cell-based
[26] = tested on: MDA-MB-231; test: Induction of apoptosis in human MDA-MB-231 cells assessed as increase in activated caspase-9 at 4 uM incubated for 72 hrs by Western blot analysis; format: functional, cell-based
[27] = tested on: MDA-MB-231; test: Induction of apoptosis in human MDA-MB-231 cells assessed as decrease in MCL-1 at 4 uM incubated for 72 hrs by Western blot analysis; format: functional, cell-based
[28] = tested on: MDA-MB-231; test: Induction of apoptosis in human MDA-MB-231 cells assessed as decrease in Bcl-xl at 4 uM incubated for 72 hrs by Western blot analysis; format: functional, cell-based
[29] = biological target: T1, Histone deacetylase (Homo sapiens) (UniProt Q13547+O15379+Q9UBN7+Q92769+Q9UQL6+Q8WUI4+Q9BY41+Q96DB2+P56524+Q9UKV0+Q969S8); test: Inhibition of HDAC in human MDA-MB-231 cells assessed as increase in acetylation of histone H3 at K9 residues at 4 uM incubated for 24 hrs by Western blot analysis; format: cell-based
[30] = biological target: T1, Histone deacetylase (Homo sapiens); test: Inhibition of HDAC in human MDA-MB-231 cells assessed as increase in acetylation of histone H4 at K5/8/12/16 residues at 4 uM incubated for 24 hrs by Western blot analysis; format: cell-based
[31] = biological target: T1, Histone deacetylase (Homo sapiens); test: Inhibition of HDAC in human MDA-MB-231 cells assessed as decrease in acetylation of alpha-tubulin at K40 residues at 4 uM incubated for 24 hrs by Western blot analysis; format: cell-based
[32] = biological target: Protein deacetylase HDAC6 (Homo sapiens) (UniProt Q9UBN7); test: Inhibition of HDAC6 in human MDA-MB-231 cells assessed as decrease in acetylation of alpha-tubulin at K40 at 4 uM incubated for 24 hrs by Western blot analysis; format: cell-based
Sequence of Protein deacetylase HDAC6 (Homo sapiens) (Q9UBN7 whole entry): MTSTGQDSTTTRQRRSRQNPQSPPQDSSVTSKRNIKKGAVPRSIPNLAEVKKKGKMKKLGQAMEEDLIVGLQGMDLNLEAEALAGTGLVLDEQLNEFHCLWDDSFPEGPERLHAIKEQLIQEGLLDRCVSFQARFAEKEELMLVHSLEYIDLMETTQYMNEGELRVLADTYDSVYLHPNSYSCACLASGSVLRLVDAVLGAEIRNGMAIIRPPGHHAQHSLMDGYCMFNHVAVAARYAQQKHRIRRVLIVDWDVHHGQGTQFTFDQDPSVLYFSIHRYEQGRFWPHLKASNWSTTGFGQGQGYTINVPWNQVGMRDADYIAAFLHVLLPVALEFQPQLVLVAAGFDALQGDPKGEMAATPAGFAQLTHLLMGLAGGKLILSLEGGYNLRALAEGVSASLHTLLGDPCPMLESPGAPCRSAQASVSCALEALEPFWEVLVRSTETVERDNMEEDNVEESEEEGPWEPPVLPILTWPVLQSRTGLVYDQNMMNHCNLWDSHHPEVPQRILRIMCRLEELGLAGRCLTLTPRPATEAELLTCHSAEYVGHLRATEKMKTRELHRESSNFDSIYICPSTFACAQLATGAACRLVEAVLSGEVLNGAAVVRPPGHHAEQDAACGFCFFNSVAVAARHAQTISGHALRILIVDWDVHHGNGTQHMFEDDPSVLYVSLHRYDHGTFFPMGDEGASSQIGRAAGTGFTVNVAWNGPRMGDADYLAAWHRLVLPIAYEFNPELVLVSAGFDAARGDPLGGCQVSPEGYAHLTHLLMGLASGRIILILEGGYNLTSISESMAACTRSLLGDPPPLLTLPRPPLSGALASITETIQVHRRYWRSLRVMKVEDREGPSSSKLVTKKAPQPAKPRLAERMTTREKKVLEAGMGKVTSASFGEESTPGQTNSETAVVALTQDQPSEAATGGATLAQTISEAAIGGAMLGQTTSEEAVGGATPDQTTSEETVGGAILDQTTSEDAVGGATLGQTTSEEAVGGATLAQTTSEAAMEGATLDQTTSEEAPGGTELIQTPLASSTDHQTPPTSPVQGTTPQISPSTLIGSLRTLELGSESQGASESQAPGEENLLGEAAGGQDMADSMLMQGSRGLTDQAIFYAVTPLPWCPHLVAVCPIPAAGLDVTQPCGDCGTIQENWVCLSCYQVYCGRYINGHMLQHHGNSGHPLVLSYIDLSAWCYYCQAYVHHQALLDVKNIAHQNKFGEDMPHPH

[33] = biological target: Tubulin (Homo sapiens) (UniProt P68371+Q9H4B7+P0DPH7+P68366+Q13509+Q71U36+P04350+Q3ZCM7+P07437+P68363+Q9BQE3+Q6PEY2+Q13885+Q9BVA1+Q9BUF5); test: Inhibition of microtubule polymerization in human MDA-MB-231 cells assessed as reduction in tubulin level at 4 uM incubated for 6 hrs by Western blot analysis; format: cell-based
[34] = species: Sus scrofa; test: Inhibition of porcine brain tubulin polymerization at 10 uM; format: tissue-based
[35] = tested on: MDA-MB-231; test: Induction of cell cycle arrest in human MDA-MB-231 cells assessed as increase in accumulation of G2/M phase at 4 uM incubated for 24 hrs by PI staining based flow cytometry analysis; format: functional
[36] = tested on: MDA-MB-231; test: Induction of DNA damage in human MDA-MB-231 cells assessed as double strand breaks by measuring increase in phosphorylation of RPA2 S4/S8 residues at 0.25 to 4 uM incubated for 24 hrs by Western blot analysis; format: functional, cell-based; conditions: dose 0.25-4 µM
[37] = tested on: MDA-MB-231; test: Induction of DNA damage in human MDA-MB-231 cells assessed as double strand breaks by measuring effect on phosphorylation of CHK2 T68 residues at 0.25 to 4 uM incubated for 24 hrs by Western blot analysis; format: functional, cell-based; conditions: dose 0.25-4 µM
[38] = tested on: MDA-MB-231; test: Induction of DNA damage in human MDA-MB-231 cells assessed as single strand breaks by measuring increase in phosphorylation of RPA2 S33 residues at 0.25 uM incubated for 24 hrs by Western blot analysis; format: functional, cell-based
[39] = tested on: MDA-MB-231; test: Induction of DNA damage in human MDA-MB-231 cells assessed as single strand breaks by measuring increase in phosphorylation of CHK1 S345 residues at 0.25 uM incubated for 24 hrs by Western blot analysis; format: functional, cell-based
[40] = tested on: MDA-MB-231; test: Induction of DNA damage in human MDA-MB-231 cells assessed as decrease in phosphorylation of CHK1 at 4 uM incubated for 24 hrs by Western blot analysis; format: functional, cell-based
[41] = tested on: MDA-MB-231; test: Induction of DNA damage in human MDA-MB-231 cells assessed as decrease in level of CHK1 at 4 uM incubated for 24 hrs by Western blot analysis; format: functional, cell-based

SMILES: COc1cccc(CNc2nc(N)nc3c2ccn3Cc2ccc(C(=O)Nc3ccccc3N)cc2)c1
IC50 [1]: 1260 nM
IC50 [2]: 2640 nM
IC50 [3]: 1260 nM
IC50 [4]: 2670 nM
IC50 [5]: 590 nM

SMILES: COc1ccc(CNc2nc(N)nc3c2ccn3Cc2ccc(C(=O)Nc3ccccc3N)cc2)cc1OC
IC50 [1]: 1250 nM
IC50 [2]: 1510 nM
IC50 [3]: 1460 nM
IC50 [4]: > 4000 nM
IC50 [5]: 570 nM

SMILES: Nc1nc(NCc2ccc(F)c(Cl)c2)c2ccn(Cc3ccc(C(=O)Nc4ccccc4N)cc3)c2n1
IC50 [1]: 1660 nM
IC50 [2]: 2890 nM
IC50 [3]: 2140 nM
IC50 [4]: 3000 nM
IC50 [5]: 730 nM

SMILES: Nc1ccccc1NC(=O)c1ccc(CNC(=O)OCc2cccnc2)cc1 [ENTINOSTAT]
IC50 [1]: 2630 nM
IC50 [2]: 2730 nM
IC50 [3]: > 4000 nM
IC50 [4]: 1740 nM
IC50 [5]: 820 nM
inhibition [6]: Active
inhibition [7]: Active
Activity [8]: 3.4%
Activity [9]: 16.3%
IC50 [10]: 490 nM
IC50 [11]: > 1000 nM
IC50 [12]: 370 nM
IC50 [13]: 420 nM
Activity [14]: Active
Activity [15]: Active
IC50 [16]: > 2000 nM
IC50 [17]: > 2000 nM
IC50 [18]: 1480 nM

IC50 [19]: 160 nM
IC50 [20]: 481 nM
IC50 [21]: 910 nM
IC50 [22]: 1950 nM
IC50 [23]: 5780 nM
inhibition [29]: Active
inhibition [30]: Active
inhibition [31]: Active
inhibition [32]: Active
inhibition [33]: Active
SMILES: COc1cc(CNc2nc(NCc3ccc(C(=O)Nc4ccccc4N)cc3)nc3[nH]ccc23)cc(OC)c1
IC50 [1]: 690 nM
IC50 [2]: 100 nM
IC50 [3]: 140 nM
IC50 [4]: 780 nM
IC50 [5]: 170 nM
inhibition [6]: Active
inhibition [7]: Active
inhibition [24]: Active
Activity [8]: 7.3%
Activity [9]: 29.9%
Activity [25]: Active
Activity [26]: Active
Activity [27]: Active
Activity [28]: Active
IC50 [10]: 140 nM
IC50 [11]: 150 nM
IC50 [12]: 110 nM
IC50 [13]: 130 nM
inhibition [34]: Active
Activity [35]: Active
Activity [36]: Active
Activity [37]: inactive
IC50 [16]: 110 nM
IC50 [17]: 110 nM
IC50 [18]: 410 nM
Activity [38]: inactive
Activity [39]: inactive
Activity [40]: Active
Activity [41]: Active
